# From ChEMBL document CHEMBL1151168, “Cytotoxic sterols and saponins from the starfish Certonardoa semiregularis” (2004)
# Experiments:
# Format in all cases: functional
# Details in all cases: read-out: ED50 (the source's name)
# SK-OV-3 = assay: Cytotoxicity against human SKOV3 cells
# HCT-15 = assay: Cytotoxicity against human HCT15 cells
# XF498 = assay: Cytotoxicity against human XF498 cells
# A549 = assay: Cytotoxicity against human A549 cells
# SK-MEL-2 = assay: Cytotoxicity against human SK-MEL-2 cells
Compound,EC50 (SK-OV-3) [µg/mL],EC50 (HCT-15) [µg/mL],EC50 (XF498) [µg/mL],EC50 (A549) [µg/mL],EC50 (SK-MEL-2) [µg/mL]
"C[C@H](/C=C/[C@@H](C)[C@H]1CC(O)[C@H]2[C@@H]3CC(O)[C@H]4C[C@@H](O)CC[C@]4(C)[C@H]3CC[C@]12C)[C@H](C)CO (single isomer, unassigned) [CERTONARDOSTEROL E3]",0.69,0.73,0.33,0.54,0.4
CO[C@@H]1CO[C@@H](OCC[C@@H](CC[C@@H](C)[C@H]2[C@@H](O)[C@@H](O)[C@@H]3[C@]2(C)CC[C@@H]2[C@@]4(C)CC[C@H](O)[C@H](O)[C@@H]4[C@@H](O)C[C@]23O)C(C)C)[C@H](O)[C@H]1O [CERTONARDOSIDE I2],3.06,8.32,3.69,4.26,2.39
CO[C@@H]1CO[C@@H](OCC[C@@H](CC[C@@H](C)[C@H]2[C@@H](O)[C@@H](O)[C@H]3[C@@H]4C[C@H](O)[C@H]5[C@@H](O)[C@@H](O)CC[C@]5(C)[C@H]4CC[C@]23C)C(C)C)[C@H](O)[C@H]1O [CERTONARDOSIDE J2],3.29,8.2,3.53,3.41,2.36
CO[C@@H]1CO[C@@H](OCC[C@@H](/C=C/[C@@H](C)[C@H]2[C@@H](O)[C@@H](O)[C@H]3[C@@H]4C[C@H](O)[C@H]5[C@@H](O)[C@@H](O)CC[C@]5(C)[C@H]4CC[C@]23C)C(C)C)[C@H](O)[C@H]1O [CERTONARDOSIDE J3],0.74,2.76,0.45,0.83,0.3
CO[C@@H]1CO[C@@H](OCC[C@@H](CC[C@@H](C)[C@H]2[C@@H](O)[C@@H](O)[C@H]3[C@@H]4C[C@H](O)[C@H]5C[C@@H](O)CC[C@]5(C)[C@H]4CC[C@]23C)C(C)C)[C@H](O)[C@H]1O [CERTONARDOSIDE O1],2,2.28,0.74,1.25,0.68
CO[C@@H]1CO[C@@H](OCC[C@@H](CC[C@@H](C)[C@H]2[C@@H](O)[C@@H](O)[C@@H]3[C@]2(C)CC[C@@H]2[C@@]4(C)CC[C@H](O)C[C@@H]4[C@@H](O)C[C@]23O)C(C)C)[C@H](O)[C@H]1O [CERTONARDOSIDE P1],0.89,2.17,0.35,0.87,0.26
C[C@H](/C=C/[C@@H](C)[C@H]1C[C@@H](O)[C@@H]2[C@]1(C)CC[C@@H]1[C@@]3(C)CC[C@H](O)[C@H](O)[C@@H]3[C@@H](O)C[C@]12O)[C@H](C)CO [CERTONARDOSTEROL A2],1.13,2.54,0.89,1.75,0.67
C[C@H](/C=C/[C@@H](C)[C@H]1C[C@@H](O)[C@H]2[C@@H]3C[C@H](O)[C@H]4[C@@H](O)[C@@H](O)CC[C@]4(C)[C@H]3CC[C@@]21C)[C@H](C)CO [CERTONARDOSTEROL B2],2.64,2.71,2.21,2.33,2.23
C[C@H](/C=C/[C@@H](C)[C@H]1C[C@@H](O)[C@@H]2[C@]1(C)CC[C@@H]1[C@@]3(C)CC[C@H](O)C[C@@H]3[C@@H](O)C[C@]12O)[C@H](C)CO [CERTONARDOSTEROL C2],0.16,0.25,0.08,0.15,< 0.1
CC(C)[C@H](/C=C/[C@@H](C)[C@H]1C[C@@H](O)[C@H]2[C@@H]3C[C@H](O)[C@H]4C[C@@H](O)CC[C@]4(C)[C@H]3CC[C@@]21C)CO [CERTONARDOSTEROL D2],0.08,0.01,0.07,0.15,0.09
CC(C)[C@@H](CCO)CC[C@@H](C)[C@H]1C[C@@H](O)[C@H]2[C@@H]3C[C@H](O)[C@H]4C[C@@H](O)CC[C@]4(C)[C@H]3CC[C@@]21C [CERTONARDOSTEROL D3],1.33,2.48,0.84,1.36,0.68
C[C@H](/C=C/[C@@H](C)[C@H]1C[C@@H](O)[C@H]2[C@@H]3C[C@H](O)[C@H]4C[C@@H](O)CC[C@]4(C)[C@H]3CC[C@@]21C)[C@H](C)CO [CERTONARDOSTEROL D4],1.51,1.25,1.22,1.75,0.48
CC(C)[C@@H](CCO)CC[C@@H](C)[C@H]1C[C@H](O)[C@H]2[C@@H]3C[C@@H](O)[C@H]4C[C@@H](O)CC[C@]4(C)[C@H]3CC[C@@]21C [CERTONARDOSTEROL E2],0.83,1.26,0.4,0.48,0.28
CC(C)[C@@H](CCO)CC[C@@H](C)[C@H]1[C@@H](O)[C@@H](O)[C@H]2[C@@H]3C[C@H](O)[C@H]4C[C@@H](O)CC[C@]4(C)[C@H]3CC[C@]12C [CERTONARDOSTEROL N1],0.9,1.25,0.43,0.82,0.4
CC(C)[C@@H](CCO)CC[C@@H](C)[C@H]1[C@@H](O)[C@@H](O)[C@@H]2[C@]1(C)CC[C@@H]1[C@@]3(C)CC[C@H](O)C[C@@H]3[C@@H](O)C[C@]12O [CERTONARDOSTEROL O1],6.59,17.7,6.92,8.32,5.32
CC(C)[C@@H](CCO)CC[C@@H](C)[C@H]1[C@@H](O)[C@@H](O)[C@@H]2[C@]1(C)CC[C@@H]1[C@@]3(C)CC[C@H](O)[C@H](O)[C@@H]3[C@@H](O)C[C@]12O [CERTONARDOSTEROL P1],3.5,4.39,3.48,3.3,2.5
COc1cccc2c1C(=O)c1c(O)c3c(c(O)c1C2=O)C[C@@](O)(C(=O)CO)C[C@@H]3O[C@H]1C[C@H](N)[C@H](O)[C@H](C)O1 [DOXORUBICIN],0.08,0.06,0.06,0.01,0.02
